Earlier results on one compound are cited in patent US20240189323A1, “PREPARATION FOR ETHINYLESTRADIOL-CYCLODEXTRIN COMPLEX AND USE THEREOF” (NATIONAL RESEARCH INSTITUTE FOR FAMILY PLANNING, priority 2022, published 2024).

For this data set the following is noted: background description.

As to `C#C[C@]1(O)CC[C@H]2[C@@H]3CCc4cc(O)ccc4[C@H]3CC[C@@]21C` [ethinylestradiol, 3-hydroxy-19-nor-17α-pregna-1,3,5(10)-trien-20-yn-17-ol], the solubility in water result is on record as “almost insoluble in water”.
